Tests used:
[1] = test system: leishmanial TOP1B (LTOP1B); assay: LTOP1B relaxation activity assay; type: biochemical, Leishmania; conditions: 100 µM of compound, 1 min
Method: The inhibition of relaxation activity of LTOP1B by the compounds was tested at 100 µM. The reactions were performed for 1 min in the way described in the experimental protocols section. The percentage of inhibition was calculated by measuring the intensity of the band corresponding to the supercoiled DNA when the different DNA topoisomers were separated in an agarose gel.
Purification of leishmanial DNA topoisomerase 1B (LTOP1B) was carried out as reported previously. Shortly, LTOP1B was purified using the deficient in TOP1 activity yeast strain, EKY3 MAT α ura3–52 his3Δ20ting, from the union of the bicistronic expression vector pESC-URA to both subunits of LTOP1B. The yeast cells were grown in a yeast synthetic drop-out medium without uracil (Sigma) supplemented with 2% raffinose (w/v) to OD600: 0.8–1 and induced for 10 h with 2% galactose (w/v). After that, the cells were harvested, washed with cold TEEG buffer (50 mM Tris–HCl pH 7.4, 1 mM EDTA, 1 mM EGTA, 10% glycerol), resuspended in 15 mL of 1× TEEG buffer supplemented with 0.2 M KCl and a protease inhibitors cocktail (Thermo Scientific, Waltham, MA, USA) and lysed. Protein extract obtained was loaded on a 5 mL Heparin Sepharose column (GE Healthcare, MA, USA). LTOP1B enzyme was eluted at 4 °C with a discontinuous gradient of KCl (0.2, 0.4, 0.6 M) in TEEG buffer.
Leishmanial TOP1B activity was tested by the relaxation of supercoiled plasmid DNA assay. Each reaction contained: one unit of purified LTOP1B enzyme, 100 µM of each compound, 0.5 μg of supercoiled pSK DNA, 10 mM Tris-HCl buffer pH 7.5, 5 mM MgCl2, 0.1 mM EDTA, 15 µg/mL bovine serum albumin, and 150 mM KCl. The final volume of each reaction was 20 µL. Reaction mixtures were incubated for 1 min at 37 °C and stopped by the addition of a 4 µL loading buffer (5% sarkosyl, 0.12% bromophenol blue, 25% glycerol). The DNA topoisomers were resolved in 1% agarose gels by electrophoresis in 0.1 M Tris borate EDTA buffer (pH 8.0) at 2 V/cm for 16 h and visualized with UV illumination after ethidium bromide (0.5 μg/mL) staining. The percentage of inhibition was calculated by measuring the intensity of the band corresponding to the supercoiled DNA after separating and staining the different DNA topoisomers. This analysis was performed using the GeneTools from Syngene software (Version 4.3.8, MD, USA).

[2] = test system: SKOV3 (human ovarian carcinoma); assay: CCK-8 cytotoxicity assay, SKOV3; type: cell-based; conditions: SK-OV-3, 48 h, read-out: Cytotoxicity IC50 Ovarian SKOV3
Method: (§1) The cytotoxicity of the newly synthesized quinolinylphosphonates 7 was evaluated in vitro by testing their antiproliferative activities against several human cancer cell lines: A549 (human lung adenocarcinoma cells), SKOV3 (human ovarian carcinoma), and HEK293 (human embryonic kidney). In order to analyze the selective cytotoxicity facing exclusively cancerous cell lines, cytotoxicity against non-cancerous cell lines (MRC-5, lung fibroblast cells) was also evaluated. Cell counting kit (CCK-8) assay was employed to assess growth inhibition and, cell proliferation inhibitory activities of compounds that are listed in Table 1 as IC50 values. […] According to the data presented in Table 1, in general, all these phosphorated derivatives present higher selective cytotoxicity in the A549 cell line than in the other two cell lines, SKOV3 and HEK293, although slight differences are observed compared to human ovarian carcinoma (SKOV3).
(§2) Cells were cultured according to the supplier’s instructions, A549 (ATCC® CCL-185), SKOV3 (ATCC® HTB-77), HEK293 (CLS GmbH), MRC-5 (ATCC® CCL-171™). Cells were seeded in 96-well plates at a density of 2–2.5 × 10^3 cells per well and incubated overnight in 0.1 mL of media supplied with 10% Fetal Bovine Serum (Lonza, Basel, Switzerland) in a 5% CO2 incubator at 37 °C. On day 2, drugs (concentration between 0.5–50 μM) were added and samples were incubated for 48 h. After treatment, 10 μL of cell counting kit-8 was added to each well for an additional 2 h incubation at 37 °C. The absorbance of each well was determined by an Automatic Elisa Reader System at 450 nm wavelength. CPT was purchased from Sigma-Aldrich and used as a positive control.

[3] = test system: A549 (human lung adenocarcinoma cells); assay: CCK-8 cytotoxicity assay, A549; type: cell-based; conditions: A549, 48 h, read-out: Cytotoxicity IC50 Lung A549
Method: as §1, §2

[4] = test system: L. infantum promastigotes; assay: In vitro iRFP-L. infantum promastigotes viability assay; type: cell-based; conditions: Leishmania infantum; 96 h exposure, EC50 ± SD
Method: The effect of the new quinolinylphosphonate derivatives 7 synthesized was assessed on both free-living promastigotes and intramacrophage amastigotes of L. infantum as it is described in experimental protocols. Primary cultures of intramacrophage amastigotes were obtained from splenic explants from 6-weeks infected Balb/c mice with L. infantum-iRFP promastigotes. The infrared fluorescence emitted by both stage forms of the parasite was used as viability criterium, using 0.5% DMSO as negative control (100% viability) and […] AMB as a positive control (0% viability).
A genetically modified strain of L infantum BCN 150, expressing iRFP protein from Rhodopseudomonas palustris bacteriophytochrome (iRFP-L. infantum), was used to obtain the EC50 values of the different compounds against promastigotes, through the detection of the near-infrared radiation emitted by living parasites exposed to tested molecules. Thus, the viability of promastigotes was calculated after recording their fluorescence at 708 nm in an Odyssey (Li-Cor, NE, USA) infrared imaging.
iRFP-L. infantum promastigotes were cultured using M199 medium (Gibco, Thermo Fisher Scientific, MA, USA), supplemented with 25 mM 4-(2-hydroxyethyl)-1-piperazineethanesulfonic acid (HEPES) pH 6.9, […] hemin, 10 mM glutamine, 0.1 mM adenosine, 0.01 mM folic acid, 1× RPMI 1640 vitamin mix (Sigma, Darmstadt, Germany), 10% (v/v) heat-inactivated foetal bovine serum (Gibco, Thermo Fisher Scientific, MA, USA), 50 U/mL penicillin and 50 µg/mL streptomycin. The assay was carried out, seeding 1 × 10^6 cells/mL of iRFP-L. infantum promastigotes into 96-well optical bottom black plates (Thermo Scientific, MA, USA) along with different concentrations of compound to each well. The final concentration of DMSO, the solvent used to prepare the stock solutions of compounds, was never higher than 0.1%. All of the compounds’ concentrations and controls were assayed by triplicate.

SMILES	LTOP1B Inhibition [1]	melting point	IC50 [2]	IC50 [3]	EC50 [4]
CCOP(=O)(OCC)c1cccc2c(-c3ccc(C)cc3)cc(-c3ccc(F)cc3)nc12 [7j, Diethyl (2-(4-fluorophenyl)-4-(p-tolyl)quinolin-8-yl)phosphonate]	41.21%	139 to 141 °C	10.2 ± 0.38 µM	0.83 ± 0.01 µM	7.29 ± 0.94 µM
CC(C)OP(=O)(OC(C)C)c1cccc2c(-c3ccccc3)cc(-c3ccc(F)c(F)c3)nc12 [7m, Diisopropyl (2-(3,4-difluorophenyl)-4-phenylquinolin-8-yl)phosphonate]	5.41%	127 to 129 °C	12.1 ± 1.7 µM	18.4 ± 1.4 µM	11.2 ± 0.74 µM
CCOP(=O)(OCC)c1cccc2c(-c3ccc(F)cc3)cc(-c3ccc(F)c(F)c3)nc12 [7i, Diethyl (2-(3,4-difluorophenyl)-4-(4-fluorophenyl)quinolin-8-yl)phosphonate]	54.01%	159 to 161 °C	37.6 ± 9.1 µM	4.64 ± 0.3 µM	6.35 ± 0.16 µM
CCOP(=O)(OCC)c1ccc2nc(-c3ccc(F)c(F)c3)cc(-c3ccccc3)c2c1 [7s, Diethyl (2-(3,4-difluorophenyl)-4-phenylquinolin-6-yl)phosphonate]	14.56%	134 to 136 °C	> 50 µM	6.19 ± 0.67 µM	14.7 ± 1.78 µM
Cc1ccc(-c2cc(-c3ccc(F)c(F)c3)nc3c(P(=O)(OC(C)C)OC(C)C)cccc23)cc1 [7q, Diisopropyl (2-(3,4-difluorophenyl)-4-(p-tolyl)quinolin-8-yl)phosphonate]	52.65%	140 to 142 °C	4.67 ± 1.5 µM	8.24 ± 2.42 µM	7.46 ± 0.76 µM
CCOP(=O)(OCC)c1cccc2c(-c3ccccc3)cc(-c3ccccc3)nc12 [7a, Diethyl (2,4-diphenylquinolin-8-yl)phosphonate]	58.87%	118 to 120 °C	9.3 ± 0.76 µM	2.26 ± 0.59 µM	0.91 ± 0.04 µM

From article PMC8399847, “Hybrid Quinolinyl Phosphonates as Heterocyclic Carboxylate Isosteres: Synthesis and Biological Evaluation against Topoisomerase 1B (TOP1B)” (Pharmaceuticals, 2021)
